Literature values, collected in US20230321462A1, “Method for Improving Olfactory Sensitivity” (Kao Corporation, priority 2019, published 2023).

Experiments:
Details in all cases: Table 3; cited from earlier work
OR51D1 = molecular target: T1, OR51D1 (Homo sapiens, UniProt Q8NGF3)
T1 sequence (Q8NGF3 1-324): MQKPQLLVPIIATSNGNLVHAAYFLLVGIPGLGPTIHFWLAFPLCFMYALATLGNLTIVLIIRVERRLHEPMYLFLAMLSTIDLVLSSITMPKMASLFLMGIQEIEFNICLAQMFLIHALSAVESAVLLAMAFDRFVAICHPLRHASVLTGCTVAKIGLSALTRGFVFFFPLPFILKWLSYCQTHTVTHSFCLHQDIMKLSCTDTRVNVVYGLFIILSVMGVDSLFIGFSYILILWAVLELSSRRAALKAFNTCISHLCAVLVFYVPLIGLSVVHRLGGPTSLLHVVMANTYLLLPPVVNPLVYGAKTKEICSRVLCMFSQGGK

OR2T1 = molecular target: T2, OR2T1 (Homo sapiens, UniProt O43869)
T2 sequence (O43869 1-369): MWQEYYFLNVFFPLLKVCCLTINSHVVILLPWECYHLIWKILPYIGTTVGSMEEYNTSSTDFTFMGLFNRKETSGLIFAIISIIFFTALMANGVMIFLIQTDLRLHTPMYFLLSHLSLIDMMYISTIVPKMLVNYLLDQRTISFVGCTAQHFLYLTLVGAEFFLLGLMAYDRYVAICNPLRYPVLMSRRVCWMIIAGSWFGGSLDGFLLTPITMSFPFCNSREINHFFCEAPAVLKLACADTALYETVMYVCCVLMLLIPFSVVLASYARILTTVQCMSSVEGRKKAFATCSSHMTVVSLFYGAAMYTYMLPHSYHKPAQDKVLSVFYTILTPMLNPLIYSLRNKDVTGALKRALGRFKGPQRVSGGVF

OR5Al1 = molecular target: T3, OR5Al1 (Homo sapiens, UniProt P0C617)
T3 sequence (P0C617 1-329): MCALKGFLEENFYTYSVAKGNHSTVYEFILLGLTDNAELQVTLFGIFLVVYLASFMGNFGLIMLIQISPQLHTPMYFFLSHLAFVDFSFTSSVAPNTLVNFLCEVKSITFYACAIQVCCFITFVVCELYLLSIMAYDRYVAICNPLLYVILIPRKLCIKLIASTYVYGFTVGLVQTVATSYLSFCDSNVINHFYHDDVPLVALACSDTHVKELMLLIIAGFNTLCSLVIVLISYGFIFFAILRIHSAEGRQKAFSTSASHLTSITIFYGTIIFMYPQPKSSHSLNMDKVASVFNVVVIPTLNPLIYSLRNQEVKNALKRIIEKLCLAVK

OR7G2 = molecular target: T4, OR7G2 (Homo sapiens, UniProt Q8NG99)
T4 sequence (Q8NG99 1-324): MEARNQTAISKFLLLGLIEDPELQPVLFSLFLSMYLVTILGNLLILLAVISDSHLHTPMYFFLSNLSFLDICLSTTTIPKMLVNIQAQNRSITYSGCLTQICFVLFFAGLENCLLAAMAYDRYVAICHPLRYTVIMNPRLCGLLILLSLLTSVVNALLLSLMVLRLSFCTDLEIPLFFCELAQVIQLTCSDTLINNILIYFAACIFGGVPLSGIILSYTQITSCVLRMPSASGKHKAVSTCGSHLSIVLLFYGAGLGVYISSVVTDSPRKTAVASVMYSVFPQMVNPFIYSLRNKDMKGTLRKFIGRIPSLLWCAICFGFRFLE

CCCC(=O)O [Butyric acid]
recognized by: recognition by OR51D1 (OR51D1) | recognition by OR2T1 (OR2T1) | recognition by OR5Al1 (OR5Al1) | recognition by OR7G2 (OR7G2)
